Assay results: article PMC5769417, “Single- and Multiple-Dose Trials to Determine the Pharmacokinetics, Safety, Tolerability, and Sex Effect of Oral Ginsenoside Compound K in Healthy Chinese Volunteers” (Frontiers in Pharmacology, 2018)

Test system: healthy Chinese volunteers
Assay: Single-dose trial, safety and tolerability (adverse events)
Assay type: in vivo, human
Description: Single-dose pharmacokinetics: The single-dose trial was performed first. Seven doses of CK were given orally under fasting condition: 25, 50, 100, 200, 400, 600, and 800 mg. Eligible subjects (n = 76, male:female = 1:1) were randomized into each dose level (n = 8, 8, 10, 10, 10, 8, 8, respectively) or placebo groups (n = 2 for each dose group) with equal number of men and women in each group. Subjects in each group were admitted to the clinical facility the day before drug administration and received the corresponding dose of the test drug or placebo with 250 ml warm water on the morning of the dosing day. Drinking before and after medication was prohibited for 2 h, but the amount and time of drinking were not strictly controlled at other times. All subjects had standard lunch and dinner (unified light diet) after medication 4 and 10 h.
Safety was evaluated by continuous observation of adverse events (AEs), monitoring of vital signs, ECG, hematology, biochemistry, and urinalysis at baseline, during the trials at the set time points following drug administration, and at follow-up visits after study completion. AEs were classified by their intensity into mild, moderate and severe. Additionally, the AEs were also classified according their relationship to the test drug as positive, probable, possible, remote, or unrelated. The severity of the AEs, as well as their relationship to test drug, was assessed by a qualified physician in the unit. Clinically relevant changes in vital signs, ECG and laboratory parameters were defined as marked abnormalities. ECG were recorded in the semisupine position after a rest of at least 5 min. It is worth noting that all the information, including symptoms and signs after dosing or the medications that the subjects were concomitantly taking must be recorded on the case-report form by investigators. All available data from subjects who received the test drug and placebo were included in the summaries of the safety data and were descriptively analyzed. In addition, the differences between laboratory parameters at baseline and after drug treatment were analyzed to determine whether there were clinical significances.
All the safety data, including vital signs, laboratory indexes and ECG, were descriptively analyzed, and the statistical analyses were conducted to evaluate the effects of the test drug by comparing the differences between before and after drug treatment, between the test drug group and the placebo group and among the different dose groups.

[1] = single-dose trial, 25 mg (n = 8)
[2] = single-dose trial, 50 mg (n = 8)
[3] = single-dose trial, 100 mg (n = 10)
[4] = single-dose trial, 200 mg (n = 10)
[5] = single-dose trial, 400 mg (n = 10)
[6] = single-dose trial, 600 mg (n = 8)
[7] = single-dose trial, 800 mg (n = 8)
[8] = single-dose trial, of the 44 cases of AEs

## CC(C)=CCC[C@](C)(OC1O[C@H](CO)[C@@H](O)[C@H](O)[C@H]1O)[C@H]1CC[C@]2(C)[C@@H]1[C@H](O)C[C@@H]1[C@@]3(C)CC[C@H](O)C(C)(C)[C@@H]3CC[C@]12C (stereo partly drawn) [CK, 20-O-beta-D-glucopyranosyl-20(S)-protopanaxadiol]
Both trials
  ECG after the drug treatments: none of the subjects had clinically significant abnormalities
  intensity of all observed AEs: mild or moderate
  serious AEs: no serious AEs reported
Single dose 25 to 800 mg and multiple doses of 100–400 mg, both trials
  safety and tolerability: safe and well-tolerated
single-dose trial
  AEs after taking the test drug: 33 AEs
  subjects who suffered AEs after taking the test drug: 22 subjects
[1]
  Alkaline phosphatase increased (study drug-related AE): 0 number of subjects (%)
  Any AEs (study drug-related): 0 number of subjects (%)
  Bellyache (study drug-related AE): 0 number of subjects (%)
  Blood white cells increased (study drug-related AE): 0 number of subjects (%)
  Diarrhea (study drug-related AE): 0 number of subjects (%)
  Direct bilirubin increased (study drug-related AE): 0 number of subjects (%)
  Dizziness (study drug-related AE): 0 number of subjects (%)
  Headache (study drug-related AE): 0 number of subjects (%)
  Loss of appetite (study drug-related AE): 0 number of subjects (%)
  Nausea (study drug-related AE): 0 number of subjects (%)
  Rash (study drug-related AE): 0 number of subjects (%)
  Subcutaneous bleeding (double forearm) (study drug-related AE): 0 number of subjects (%)
  Total bilirubin increased (study drug-related AE): 0 number of subjects (%)
[2]
  Alkaline phosphatase increased (study drug-related AE): 0 number of subjects (%)
  Any AEs (study drug-related): 2 (2.6) number of subjects (%)
  Bellyache (study drug-related AE): 0 number of subjects (%)
  Blood white cells increased (study drug-related AE): 0 number of subjects (%)
  Diarrhea (study drug-related AE): 0 number of subjects (%)
  Direct bilirubin increased (study drug-related AE): 2 (2.6) number of subjects (%)
  Dizziness (study drug-related AE): 0 number of subjects (%)
  Headache (study drug-related AE): 0 number of subjects (%)
  Loss of appetite (study drug-related AE): 0 number of subjects (%)
  Nausea (study drug-related AE): 0 number of subjects (%)
  Rash (study drug-related AE): 0 number of subjects (%)
  Subcutaneous bleeding (double forearm) (study drug-related AE): 0 number of subjects (%)
  Total bilirubin increased (study drug-related AE): 0 number of subjects (%)
[3]
  Alkaline phosphatase increased (study drug-related AE): 0 number of subjects (%)
  Any AEs (study drug-related): 2 (2.6) number of subjects (%)
  Bellyache (study drug-related AE): 0 number of subjects (%)
  Blood white cells increased (study drug-related AE): 0 number of subjects (%)
  Diarrhea (study drug-related AE): 0 number of subjects (%)
  Direct bilirubin increased (study drug-related AE): 0 number of subjects (%)
  Dizziness (study drug-related AE): 1 (1.3) number of subjects (%)
  Headache (study drug-related AE): 1 (1.3) number of subjects (%)
  Loss of appetite (study drug-related AE): 0 number of subjects (%)
  Nausea (study drug-related AE): 0 number of subjects (%)
  Rash (study drug-related AE): 0 number of subjects (%)
  Subcutaneous bleeding (double forearm) (study drug-related AE): 0 number of subjects (%)
  Total bilirubin increased (study drug-related AE): 0 number of subjects (%)
[4]
  Alkaline phosphatase increased (study drug-related AE): 1 (1.3) number of subjects (%)
  Any AEs (study drug-related): 5 (6.6) number of subjects (%)
  Bellyache (study drug-related AE): 0 number of subjects (%)
  Blood white cells increased (study drug-related AE): 0 number of subjects (%)
  Diarrhea (study drug-related AE): 2 (2.6) number of subjects (%)
  Direct bilirubin increased (study drug-related AE): 2 (2.6) number of subjects (%)
  Dizziness (study drug-related AE): 0 number of subjects (%)
  Headache (study drug-related AE): 0 number of subjects (%)
  Loss of appetite (study drug-related AE): 0 number of subjects (%)
  Nausea (study drug-related AE): 0 number of subjects (%)
  Rash (study drug-related AE): 0 number of subjects (%)
  Subcutaneous bleeding (double forearm) (study drug-related AE): 0 number of subjects (%)
  Total bilirubin increased (study drug-related AE): 1 (1.3) number of subjects (%)
[5]
  Alkaline phosphatase increased (study drug-related AE): 0 number of subjects (%)
  Any AEs (study drug-related): 5 (6.6) number of subjects (%)
  Bellyache (study drug-related AE): 1 (1.3) number of subjects (%)
  Blood white cells increased (study drug-related AE): 1 (1.3) number of subjects (%)
  Diarrhea (study drug-related AE): 2 (2.6) number of subjects (%)
  Direct bilirubin increased (study drug-related AE): 1 (1.3) number of subjects (%)
  Dizziness (study drug-related AE): 0 number of subjects (%)
  Headache (study drug-related AE): 1 (1.3) number of subjects (%)
  Loss of appetite (study drug-related AE): 0 number of subjects (%)
  Nausea (study drug-related AE): 0 number of subjects (%)
  Rash (study drug-related AE): 0 number of subjects (%)
  Subcutaneous bleeding (double forearm) (study drug-related AE): 0 number of subjects (%)
  Total bilirubin increased (study drug-related AE): 0 number of subjects (%)
[6]
  Alkaline phosphatase increased (study drug-related AE): 0 number of subjects (%)
  Any AEs (study drug-related): 1 (1.3) number of subjects (%)
  Bellyache (study drug-related AE): 0 number of subjects (%)
  Blood white cells increased (study drug-related AE): 0 number of subjects (%)
  Diarrhea (study drug-related AE): 0 number of subjects (%)
  Direct bilirubin increased (study drug-related AE): 1 (1.3) number of subjects (%)
  Dizziness (study drug-related AE): 0 number of subjects (%)
  Headache (study drug-related AE): 0 number of subjects (%)
  Loss of appetite (study drug-related AE): 0 number of subjects (%)
  Nausea (study drug-related AE): 0 number of subjects (%)
  Rash (study drug-related AE): 0 number of subjects (%)
  Subcutaneous bleeding (double forearm) (study drug-related AE): 0 number of subjects (%)
  Total bilirubin increased (study drug-related AE): 0 number of subjects (%)
[7]
  Alkaline phosphatase increased (study drug-related AE): 0 number of subjects (%)
  Any AEs (study drug-related): 3 (3.9) number of subjects (%)
  Bellyache (study drug-related AE): 1 (1.3) number of subjects (%)
  Blood white cells increased (study drug-related AE): 0 number of subjects (%)
  Diarrhea (study drug-related AE): 1 (1.3) number of subjects (%)
  Direct bilirubin increased (study drug-related AE): 0 number of subjects (%)
  Dizziness (study drug-related AE): 0 number of subjects (%)
  Headache (study drug-related AE): 0 number of subjects (%)
  Loss of appetite (study drug-related AE): 0 number of subjects (%)
  Nausea (study drug-related AE): 0 number of subjects (%)
  Rash (study drug-related AE): 1 (1.3) number of subjects (%)
  Subcutaneous bleeding (double forearm) (study drug-related AE): 0 number of subjects (%)
  Total bilirubin increased (study drug-related AE): 0 number of subjects (%)
[8]
  AEs possibly related to CK: 7 cases
  AEs probably related to the test drug: 13 cases
